Reference: patent publication US9051290B2, “Biaryl phosphodiesterase inhibitors” (LEO PHARMA A/S, priority 2010, dated 2015)

Target: Human recombinant PDE4 (Genbank accession no NM—006203) (Homo sapiens, UniProt Q08499)
Assay: PDE4 assay (SPA, cleavage of cAMP)
Assay type: biochemical
Settings: 1 hour incubation, test compound up to 10 μM, cAMP 1×10^−5M, read-out: PDE4 IC50 range
Method: Human recombinant PDE4 (Genbank accession no NM_006203) was incubated for 1 hour with the test compound at concentrations up to 10 μM, with cAMP (1×10^−5M), and with a low amount (0.021 MBq) of radioactively labelled cAMP. At the end of the incubation, the cleavage of the substrate was evaluated by the binding of the AMP product to SPA beads, which generate chemoluminescence when bound to the radioactive tracer. The AMP product inhibited the binding of the radioactive tracer to the beads, and the luminescent signal was competed.
The results were calculated as the molar concentrations resulting in 50% inhibition of the substrate cleavage compared to controls samples, and are expressed as a range of IC50 (M).
The compounds of the present invention were tested in the PDE4 assay.

Chain of Human recombinant PDE4 (Genbank accession no NM—006203) (Q08499 1-673 isoform Q08499-2): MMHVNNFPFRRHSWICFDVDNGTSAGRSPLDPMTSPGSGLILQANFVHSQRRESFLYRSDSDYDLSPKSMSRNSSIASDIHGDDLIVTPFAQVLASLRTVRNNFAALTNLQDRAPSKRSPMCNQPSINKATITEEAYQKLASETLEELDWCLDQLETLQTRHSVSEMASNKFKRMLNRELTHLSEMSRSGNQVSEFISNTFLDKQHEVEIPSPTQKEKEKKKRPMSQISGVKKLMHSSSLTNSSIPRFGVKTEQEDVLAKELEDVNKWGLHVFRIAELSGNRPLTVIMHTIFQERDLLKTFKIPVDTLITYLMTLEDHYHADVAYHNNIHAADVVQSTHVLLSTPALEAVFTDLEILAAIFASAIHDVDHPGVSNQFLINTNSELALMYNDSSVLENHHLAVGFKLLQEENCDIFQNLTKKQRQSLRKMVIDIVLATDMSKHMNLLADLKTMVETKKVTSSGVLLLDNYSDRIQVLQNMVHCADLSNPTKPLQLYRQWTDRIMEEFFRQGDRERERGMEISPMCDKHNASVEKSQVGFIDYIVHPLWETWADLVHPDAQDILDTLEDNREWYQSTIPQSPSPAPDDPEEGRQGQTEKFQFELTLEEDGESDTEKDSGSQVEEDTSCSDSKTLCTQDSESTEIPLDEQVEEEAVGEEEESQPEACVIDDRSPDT

Structure (SMILES) | IC50 [µM]
COc1ccc(-c2ccc3c(c2)CNC3=O)c(OCC(C)C)c1OC [Compound 174, 5-(2-Isobutoxy-3,4-dimethoxy-phenyl)-2,3-dihydro-isoindol-1-one] | < 0.1
COc1ccc(-c2ccc3c(c2)COC3=O)c(OCCC(C)(C)C)c1OC [Compound 135, 5-[2-(3,3-Dimethyl-butoxy)-3,4-dimethoxy-phenyl]-3H-isobenzofuran-1-one] | < 0.1
COc1ccc(-c2ccc3c(c2)COC3=O)c(OCc2cccc(C(=O)N(C)C)c2)c1OC [Compound 140, 3-[2,3-Dimethoxy-6-(1-oxo-1,3-dihydro-isobenzofuran-5-yl)-phenoxymethyl]-N,N-dimethyl-benzamide] | < 0.1
COc1ccc(-c2cccc3c2COC3=O)c(OCc2ccc(S(C)(=O)=O)cc2)c1OC [Compound 115, 4-[2-(4-Methanesulfonyl-benzyloxy)-3,4-dimethoxy-phenyl]-3H-isobenzofuran-1-one] | < 0.1
COc1ccc(-c2cccc3c2CCC3=O)c(OCC2(CNC(C)=O)CC2)c1OC [Compound 185, N-{1-[2,3-Dimethoxy-6-(1-oxo-indan-4-yl)-phenoxymethyl]-cyclopropylmethyl}-acetamide] | < 0.1
COc1ccc(-c2ccc3c(c2)COC3=O)c(OCC(C)(C)CO)c1OC [Compound 137, 5-[2(3-Hydroxy-2,2-dimethyl-propoxy)-3,4-dimethoxy-phenyl]-3H-isobenzofuran-1-one] | < 0.1
CNC(=O)c1ccc(COc2c(-c3cccc4c3COC4=O)ccc(OC)c2OC)cc1 [Compound 117, 4-[2,3-Dimethoxy-6-(1-oxo-1,3-dihydro-isobenzofuran-4-yl)-phenoxymethyl]-N-methyl-benzamide] | < 0.1
COc1ccc(-c2cccc3c2CCC3=O)c(OCC2(C)COC2)c1OC [Compound 163, 4-[3,4-Dimethoxy-2-(3-methyl-oxetan-3-ylmethoxy)-phenyl]-indan-1-one] | < 0.1
COC(=O)C(C)(C)COc1c(-c2ccc3c(c2)CCC3=O)ccc(OC)c1OC [Compound 165, 3-[2,3-Dimethoxy-6-(1-oxo-indan-5-yl)-phenoxy]-2,2-dimethyl-propionic acid methyl ester] | < 0.1
COc1ccc(-c2ccc3c(c2)COC3=O)c(OCCC(C)C)c1OC [Compound 131, 5-[3,4-Dimethoxy-2-(3-methyl-butoxy)-phenyl]-3H-isobenzofuran-1-one] | < 0.1
COc1ccc(-c2cccc3c2CCC3=O)c(OCC2(CNC(=O)C(C)C)CC2)c1OC [Compound 183] | < 0.1
COCC1(COc2c(-c3ccc4c(c3)COC4=O)ccc(OC)c2OC)COC1 [Compound 215, 5-[3,4-Dimethoxy-2-(3-methoxymethyl-oxetan-3-ylmethoxy)-phenyl]-3H-isobenzofuran-1-one] | < 0.1
COc1ccc(-c2ccc3c(c2)CN(C)C3=O)c(OCC(C)C)c1OC [Compound 172, 5-(2-Isobutoxy-3,4-dimethoxy-phenyl)-2-methyl-2,3-dihydro-isoindol-1-one] | ≥ 0.5
COc1ccc(-c2ccc3c(c2)COC3=O)c(OCc2cccc(S(C)(=O)=O)c2)c1OC [Compound 143, 5-[2-(3-Methanesulfonyl-benzyloxy)-3,4-dimethoxy-phenyl]-3H-isobenzofuran-1-one] | < 0.1
COCC(=O)NCC1(COc2c(-c3cccc4c3CCC4=O)ccc(OC)c2OC)COC1 [Compound 195, N-{3-[2,3-Dimethoxy-6-(1-oxo-indan-4-yl)-phenoxymethyl]-oxetan-3-ylmethyl}-2-methoxy-acetamide] | < 0.1
COc1ccc(-c2ccc3c(c2)C(C)N(C)C3=O)c(OCC(C)C)c1OC (stereo not drawn) [Compound 171, 5-(2-Isobutoxy-3,4-dimethoxy-phenyl)-2,3-dimethyl-2,3-dihydro-isoindol-1-one] | ≥ 0.5
COc1ccc(-c2ccc3c(c2)CCC3=O)c(OCCC(C)C)c1OC [Compound 120, 5-[3,4-Dimethoxy-2-(3-methyl-butoxy)-phenyl]-indan-1-one] | < 0.1
COc1ccc(-c2cccc3c2CCC3=O)c(OCCC(C)(C)C)c1OC [Compound 105, 4-[2-(3,3-Dimethyl-butoxy)-3,4-dimethoxy-phenyl]-indan-1-one] | < 0.1
COc1ccc(-c2cccc3c2CCC3=O)c(OCc2cccc(S(=O)(=O)N(C)C)c2)c1OC [Compound 111, 3-[2,3-Dimethoxy-6-(1-oxo-indan-4-yl)-phenoxymethyl]-N,N-dimethyl-benzenesulfonamide] | < 0.1
COc1ccc(-c2ccc3c(c2)CNC3=O)c(OCc2cccc(C(=O)N(C)C)c2)c1OC [Compound 157, 3-[2,3-Dimethoxy-6-(1-oxo-2,3-dihydro-1H-isoindol-5-yl)-phenoxymethyl]-N,N-dimethyl-benzamide] | < 0.1
COc1ccc(-c2cccc3c2CCC3=O)c(OCC(C)C)c1OC [Compound 166, 4-(2-Isobutoxy-3,4-dimethoxy-phenyl)-indan-1-one] | < 0.1
COc1ccc(-c2cccc3c2CCC3=O)c(OCC(C)(C)C(=O)N(C)C)c1OC [Compound 202, 3-[2,3-Dimethoxy-6-(1-oxo-indan-4-yl)-phenoxy]-2,2,N,N-tetramethyl-propionamide] | < 0.1

Next, values leading:

IC50 [µM] | Structure (SMILES)
< 0.1 | CCNC(=O)OCC1(COc2c(-c3cccc4c3CCC4=O)ccc(OC)c2OC)COC1 [Compound 189, Ethyl-carbamic acid 3-[2,3-dimethoxy-6-(1-oxo-indan-4-yl)-phenoxymethyl]-oxetan-3-ylmethyl ester]
< 0.1 | COc1ccc(-c2ccc3c(c2)CNC3=O)c(OCC(C)(C)CO)c1OC [Compound 154, 5-[2-(3-Hydroxy-2,2-dimethyl-propoxy)-3,4-dimethoxy-phenyl]-2,3-dihydro-isoindol-1-one]
< 0.1 | COc1ccc(-c2cccc3c2CCC3=O)c(OCC2(CNC(=O)C(C)C)COC2)c1OC [Compound 193, N-{3-[2,3-Dimethoxy-6-(1-oxo-indan-4-yl)-phenoxymethyl]-oxetan-3-ylmethyl}-isobutyramide]
< 0.1 | COc1ccc(-c2cccc3c2CCC3=O)c(OCC2(COC(=O)NCc3ccccc3)CC2)c1OC [Compound 181, Benzyl-carbamic acid 1-[2,3-dimethoxy-6-(1-oxo-indan-4-yl)-phenoxymethyl]-cyclopropylmethyl ester]
< 0.1 | CNC(=O)C(C)(C)COc1c(-c2cccc3c2CCC3=O)ccc(OC)c1OC [Compound 200, 3-[2,3-Dimethoxy-6-(1-oxo-indan-4-yl)-phenoxy]-2,2,N-trimethyl-propionamide]
0.1 to 0.5 | COc1ccc(-c2cccc3c2COC3=O)c(OCC2(C)COC2)c1OC [Compound 164, 4-[3,4-Dimethoxy-2-(3-methyl-oxetan-3-ylmethoxy)-phenyl]-3H-isobenzofuran-1-one]
0.1 to 0.5 | COc1ccc(-c2ccc3c(c2)CNC3=O)c(OCc2cccc(C(N)=O)c2)c1OC [Compound 159, 3-[2,3-Dimethoxy-6-(1-oxo-2,3-dihydro-1H-isoindol-5-yl)-phenoxymethyl]-benzamide]
0.1 to 0.5 | COc1ccc(-c2cccc3c2COC3=O)c(OCC2(CO)COC2)c1OC [Compound 119, 4-[2-(3-Hydroxymethyl-oxetan-3-ylmethoxy)-3,4-dimethoxy-phenyl]-3H-isobenzofuran-1-one]
< 0.1 | CCCC(=O)NCC1(COc2c(-c3cccc4c3CCC4=O)ccc(OC)c2OC)COC1 [Compound 194, N-{3-[2,3-Dimethoxy-6-(1-oxo-indan-4-yl)-phenoxymethyl]-oxetan-3-ylmethyl}-butyramide]
< 0.1 | COc1ccc(-c2ccc3c(c2)COC3=O)c(OCc2cccc(S(N)(=O)=O)c2)c1OC [Compound 144, 3-[2,3-Dimethoxy-6-(1-oxo-1,3-dihydro-isobenzofuran-5-yl)-phenoxymethyl]-benzenesulfonamide]
< 0.1 | COc1ccc(-c2ccc3c(c2)COC3=O)c(OCc2ccc(S(C)(=O)=O)cc2)c1OC [Compound 142, 5-[2-(4-Methanesulfonyl-benzyloxy)-3,4-dimethoxy-phenyl]-3H-isobenzofuran-1-one]
< 0.1 | COc1ccc(-c2ccc3c(c2)CNC3=O)c(OCC2CCC2)c1OC [Compound 149, 5-(2-Cyclobutylmethoxy-3,4-dimethoxy-phenyl)-2,3-dihydro-isoindol-1-one]
< 0.1 | COc1ccc(-c2cccc3c2CCC3=O)c(OCc2ccc(S(C)(=O)=O)cc2)c1OC [Compound 103, 4-[2-(4-Methanesulfonyl-benzyloxy)-3,4-dimethoxy-phenyl]-indan-1-one]
< 0.1 | COc1ccc(-c2ccc3c(c2)COC3=O)c(OCc2ccc(S(N)(=O)=O)cc2)c1OC [Compound 141, 4-[2,3-Dimethoxy-6-(1-oxo-1,3-dihydro-isobenzofuran-5-yl)-phenoxymethyl]-benzenesulfonamide]
